Assay results: patent US12059413B2, “Methods of inhibiting viruses using compositions targeting TSG101-ubiquitin interaction” (The Research Foundation for the State University of New York, priority 2016, dated 2024)

Tests used:
HIV-1 Gag VLP = assay: Gag VLP production / budding, Western blot analysis; assay type: cell-based
Experimental: (§1) FIG. 15A-D. N16 inhibits HIV-1 NL4-3 and Gag VLP production. A) Effect on virus production. Virus particles from N16-treated 293T cells transfected with pNL4-3 as determined by ELISA assay. Top, The compound was added 6 hr prior to DNA transfection and tissue culture media was harvested 24 hr later. Bottom, The compound was added at the indicated concentration 24 hr after DNA transfection and tissue culture media was harvested 24 hr later. Assay values were normalized to that of the DMSO carrier control. B) Effect on virus infectivity. Infectious viral particles per ng p24 as determined by MAGI assay. C) Left, Electron microscopy of particles at cell surface at 24 hr post-N16 addition; Right, Quantitative analysis of budding morphologies. Cells expressing WT- or P7L-NL4-3 were exposed to DMSO carrier or 50 μM N16. Arrows indicate emerging ‘Early’ buds. D) Effects on Gag VLP production. Top, Western blot analysis. Cells treated at the indicated concentration were transfected with DNA encoding Gag-HA. At the end of the treatment period, tissue culture media was removed for VLP isolation. Cells were suspended in lysis buffer. Blots were probed for Gag-HA and actin. Bottom, Quantitative analysis. Ratio of VLP- or cell-associated Gag to actin normalized to the mock-treated control (0 μM N16). Number of independent trials (n) for A), B), C), and D)=3, 2, 2 and 3, respectively.
FIG. 21A-B. N16 suppresses the inhibitory effect of fusing DUb to Gag. […] Top, Western blot analysis of Gag in cushioned VLP samples; Middle, Gag and actin in cell lysates; Bottom, Quantitative analysis of VLP release efficiency normalized to the WT Gag control (Gag and Gag-DUb differed in sample size in order to yield visible signal); B) Effect of N16 on Gag and GagDUb VLP production. […] Bottom, Quantitative analysis of VLP production (left), lysate Gag (center) and VLP release efficiency (right) normalized to the mock-treated control. […]
(§2) For production of virus particles, 293T cells were transfected with pNL4-3-ΔEnv and pIIIB Env3-1 plasmids and for virus-like particles (VLP), with pCMV-Gag-HA as previously described (Watanabe et al. (2013)). For specific infectivity, media-associated p24 was determined by ELISA (Immunodiagnostics, Inc.) and equivalent amounts of p24 were used to infect HeLa-CD4+-LTR-3 gal cells for infectivity measurement by the multinuclear activation of a galactosidase indicator (MAGI) assay. […] For cell-associated Gag analysis, cell pellets were lysed with either Triton X-100 or RIPA buffer with complete mini protease inhibitor cocktail (Roche) and analyzed by Western blotting. Protein bands were visualized using an infrared-based imaging system (Odyssey, LI-COR Biotechnology) and band intensities measured using the Li-Cor Odyssey software version 2.1.15. […]

Tsg101 = biological target: T1, Tsg101 (Homo sapiens, UniProt Q99816); assay: NWU screening / in vitro binding assay; details: Esomeprazole and tenatoprazole compared
T1 sequence (Q99816 2-145 limits assumed): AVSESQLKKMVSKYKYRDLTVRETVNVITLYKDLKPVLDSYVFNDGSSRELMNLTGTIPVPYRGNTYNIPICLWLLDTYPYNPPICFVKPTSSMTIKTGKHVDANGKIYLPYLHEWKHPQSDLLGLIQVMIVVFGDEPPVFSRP
Excerpt: Pantoprazole, Lansoprazole/Dexlansoprazole (dexlansoprazole is the active enantiomer of the racemic lansoprazole), and Rabeprazole were in the NWU screen but were not considered hits.

HIV-1 NL4-3 = assay: Viral particle production from 293T cells transfected with pNL4-3, p24 ELISA; assay type: cell-based
Experimental: as §1, with “Cells were suspended in lysis buffer. Blots were probed for Gag-HA and actin.” left out, “Ratio of VLP- or cell-associated Gag to actin normalized to the mock-treated control (0 μM N16). Number of independent trials (n) for A), B), C), and D)=3, 2, 2 and 3, respectively.” left out
as §2, with “2.1.15. Virus particle release efficiency was calculated [VLP signal intensity/(VLP signal intensity+cell lysate signal intensity)].” for “2.1.15.”

293T cells = assay: Metabolic activity, WST-1 assay, 293T cells; assay type: cell-based; details: Homo sapiens, HEK-293T; 293T, 24 hr in N16, WST-1; read-out: IC50 (95% confidence levels), metabolic activity
Experimental: FIG. 20A-C. N16 inhibition is virus-specific. A) N16 IC50 for Hela and 293T cells. […] Values were calculated by measuring metabolic activity (WST-1 Assay, Roche Applied Science) after cells were grown for 24 hr in N16. Data points represent the mean of 2 assays, 3 time points each for each cell line. […] Values in the absence or presence of N16 (50 uM) were 12% and 13%, respectively). C) N16 effect on EGF-stimulated EFGR degradation. Cells maintained for 24 hr in media containing DMSO alone or DMSO and N16 were stimulated with EGF ligand for a 90 min period and then assessed for EGFR steady-state level by Western analysis. EGFR levels for unstimulated and stimulated sample pairs are shown. A) n=2; B) n=2; C) n=2.
FIG. 27A-C. Effect of N-Acetyl Cysteine (NAC) on N16-mediated inhibition of VLP production and intracellular Gag accumulation. […] A concentration of 3 mM NAC was therefore used to test the effect of the antioxidative reagent on the N16 inhibitory effect. N16 (0, 12, 25, 50, 75, and 100 uM) was added 8.5 hr prior to transfection with pNL4-3ΔEnv. Cells were harvested 16 hr later. […] C) Quantitative analysis. n=2.
Cells were grown in 96-well trays for 24 hr with increasing levels of drug, metabolic activity was measured using WST-1colorimetric assay (Roche), and IC50 values were calculated (Prism 6, Graph Pad Software Inc.).

Structure (SMILES)	effectiveness in tissue culture budding assay (HIV-1 Gag VLP; compared with Tenatoprazole)	binding in the in vitro binding assay (Tsg101)	EC50 (HIV-1 NL4-3; Human immunodeficiency virus 1, NL43, HEK-293T, 6 h, N16 added six hours before transfection, 293T cells) [µM]	effect on budding when added 24 hr post-transfection (HIV-1 NL4-3; addition at 24 hr post-transfection, even at higher concentrations)	lowest concentration achieved in tissue culture assays under optimal conditions (HIV-1 NL4-3; c.f. FIG. 15) [µM]	IC50 (293T cells) [µM]	budding directed by WT Gag (HIV-1 Gag VLP; 50 μM N16, 293T)	Gag intracellular accumulation and VLP formation (HIV-1 Gag VLP; 293T, FIG. 15D)	budding of the Gag-DUb fusion (HIV-1 Gag VLP; N16 present, 293T)
COc1ccc2nc([S@@+]([O-])Cc3ncc(C)c(OC)c3C)[nH]c2c1 [F15, esomeprazole]	less effective than Tenatoprazole	comparable binding							
COc1ccc2[nH]c([S+]([O-])Cc3ncc(C)c(OC)c3C)nc2n1 (stereo not drawn) [N16, tenatoprazole]			25 to 50	little effect	25 to 50	99.8 to 139	inhibited	dose-dependent reduction	not inhibited
